The source of these data is US20120115845A1, “THERAPEUTIC AGENTS” (priority 2007, published 2012).

Usually EC50 stands for the concentration that produces a half-maximal response. In general, IC50 refers to the concentration that gives 50% inhibition.

Each structure is given as a SMILES string.

The target in assay [1] is T1, human GHS receptor (Homo sapiens, UniProt Q92847). Put plainly: Ghrelin IP1 agonist assay (IP1 HTRF). To be noted: for Emax: 2 h, agonist effect as % maximal effect of GHRP-6 (5 μM), read-out: h IP1 ag %; for EC50: HEK293s cells stably expressing human GHS receptor, 2 hours at 37° C., read-out: h IP1 ag EC50. It counts as cell-based. The arrangement: expressed in transfected cells; host or cells: HEK293s. As to the method:
In HEK293s cells stably expressing human GHS receptor (In-house), agonist activity was assessed by measuring intracellular myo-Inositol 1 phosphate (IP1) using the IP1 HTRF assay kit (Cisbio International).
Cells were harvested using accutase (Sigma), spun down at 1000 rpm for 5 minutes and resuspended in stimulation buffer (as above) containing 0.02% fatty acid free BSA at a density of 1.43E6cells/ml.
Agonist effect of the compound was expressed as % maximal effect of GHRP-6 (5 μM: Bachem). Sigmoidal curves were fitted by Origin 7.5 Client and EC50 values determined.

Assay [2] deals with T1, human GHS receptor. Put plainly: h bind IC50 (binding assay, Table 1). To be noted: for IC50: human receptor, Table 1.

T1 sequence (Q92847 whole entry): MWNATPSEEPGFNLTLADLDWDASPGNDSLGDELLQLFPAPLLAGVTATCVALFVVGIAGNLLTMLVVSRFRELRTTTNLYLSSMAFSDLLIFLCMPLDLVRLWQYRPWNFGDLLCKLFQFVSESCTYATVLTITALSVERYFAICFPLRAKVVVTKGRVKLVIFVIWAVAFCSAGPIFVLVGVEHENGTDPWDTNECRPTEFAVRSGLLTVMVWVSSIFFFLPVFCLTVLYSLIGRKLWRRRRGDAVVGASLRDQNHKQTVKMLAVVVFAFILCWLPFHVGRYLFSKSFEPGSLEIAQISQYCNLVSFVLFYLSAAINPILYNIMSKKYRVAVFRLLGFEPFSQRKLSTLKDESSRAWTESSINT

Turning to `CN1CCN(CCCS(=O)(=O)c2ccc3nc(NC(=O)NC(=O)c4cc(C5CC5)ccc4Cl)sc3c2)CC1` [Example 94, 2-Chloro-5-cyclopropyl-N-(6-(3-(4-methylpiperazin-1-yl)propylsulfonyl)benzothiazol-2-ylcarbamoyl)benzamide], in assay [1], the Emax was 18.1% and the EC50 came to 7.24 nM. The same molecule displayed an IC50 in assay [2] of 0.3 nM.

Consider `Cc1cc(C)n(-c2ccc(Cl)c(C(=O)NC(=O)Nc3nc4ccc(S(=O)(=O)CCCN5CCN(C)CC5)cc4s3)c2)n1` [Example 237, 2-chloro-5-(3,5-dimethyl-1H-pyrazol-1-yl)-N-(6-(3-(4-methylpiperazin-1-yl)propylsulfonyl)benzo[d]thiazol-2-ylcarbamoyl) benzamide], for which, in assay [1], the Emax was found to be 0% and the EC50 was at least 20000 nM. In addition, in assay [2], the IC50 is 0.7 nM.

As to `CCN1CCC[C@@H]1CS(=O)(=O)c1ccc2nc(NC(=O)NC(=O)c3ccccc3Cl)sc2c1` [Example 164, 2-Chloro-N-[[6-[[(2R)-1-ethylpyrrolidin-2-yl]methylsulfonyl]benzothiazol-2-yl]carbamoyl]benzamide], in assay [1], the Emax came to 43.9% and the EC50 stood at 70.2 nM. The molecule also registered an IC50 in assay [2] of 174 nM.

Turning to `CS(=O)(=O)c1ccc2nc(NC(=O)NC(=O)c3ccccc3COc3ccccc3)sc2c1` [Example 131, N-[(6-Methylsulfonylbenzothiazol-2-yl)carbamoyl]-2-(phenoxymethyl)benzamide], in assay [1], the Emax worked out at 17.5% and the EC50 was found to be 191 nM. Besides, the IC50 in assay [2] turned out to be 229 nM.

Take `CS(=O)(=O)c1ccc2nc(NC(=O)NC(=O)c3ccc(F)cc3Cl)sc2c1` [Example 107, 2-Chloro-4-fluoro-N-[(6-methylsulfonylbenzothiazol-2-yl)carbamoyl]benzamide]: in assay [1], the Emax is 19.3% and the EC50 worked out at 27.6 nM. In assay [2], this molecule yielded an IC50 of 306 nM.

With `CS(=O)(=O)c1ccc2nc(NC(=O)NC(=O)c3cc(CN4CCCC4)ccc3Cl)sc2c1` [Example 62, 2-Chloro-5-pyrrolidin-1-ylmethyl-N-(6-(methylsulfonyl)benzothiazol-2-ylcarbamoyl)benzamide], in assay [1], the Emax was 9.06% and the concentration for a half-maximal effect (EC50) is at least 25000 nM. In assay [2], this molecule had an IC50 of 1740 nM.

Turning to `CS(=O)(=O)c1ccc2nc(NC(=O)NC(=O)c3ccccc3OS(=O)(=O)C(F)(F)F)sc2c1` [Example 137, N-[(6-Methylsulfonylbenzothiazol-2-yl)carbamoyl]-2-(trifluoromethylsulfonyloxy)benzamide], in assay [1], the Emax was determined as 24.1% and the EC50 stood at 2320 nM. Further, in assay [2], the IC50 was 1750 nM.

Turning to `CN1CCN(CCCCS(=O)(=O)c2ccc3nc(NC(=O)NC(=O)c4ccccc4Cl)sc3c2)CC1` [Example 210, 2-Chloro-N-[[6-[4-(4-methylpiperazin-1-yl)butylsulfonyl]benzothiazol-2-yl]carbamoyl]benzamide], in assay [1], the Emax stood at 51.5% and the half-maximal effective concentration (EC50) is 2.26 nM. For the same molecule, the IC50 in assay [2] is 2.2 nM.

`CC(=O)NC1CC(S(=O)(=O)c2ccc3nc(NC(=O)NC(=O)c4ccccc4Cl)sc3c2)C1` (stereo not drawn) [Example 223, N-[[6-(3-Acetamidocyclobutyl)sulfonylbenzothiazol-2-yl]carbamoyl]-2-chlorobenzamide]: in assay [1], the Emax was found to be 24.8% and the EC50 was found to be 62.1 nM. Further, the IC50 in assay [2] was determined as 95.8 nM.

`CC1CN(CCS(=O)(=O)c2ccc3nc(NC(=O)NC(=O)c4ccccc4Cl)sc3c2)CC(C)O1` (stereo not drawn) [Example 19, 2-Chloro-N-[[6-[2-(2,6-dimethylmorpholin-4-yl)ethylsulfonyl]benzothiazol-2-yl]carbamoyl]benzamide] yielded an IC50 in assay [2] of 1050 nM.

As for `CN1CCC(S(=O)(=O)c2ccc3nc(NC(=O)NC(=O)c4ccccc4Cl)sc3c2)C1` (stereo not drawn) [Example 167, 2-Chloro-N-[[6-(1-methylpyrroldin-3-yl)sulfonylbenzothazol-2-yl]carbamoyl]benzamide], the IC50 in assay [2] stood at 109 nM.

In assay [2], `COc1cc(Cl)c(C(=O)NC(=O)Nc2nc3ccc(S(=O)(=O)C4CCNCC4)cc3s2)cc1-n1cccn1` [Example 263, 2-chloro-4-methoxy-N-(6-(piperidin-4-ylsulfonyl)benzo [d]thiazol-2-ylcarbamoyl) 5-(1H-pyrazol-1-yl)benzamide] came in with an IC50 of 1.12 nM.

In assay [2], `O=C(NC(=O)c1ccccc1Cl)Nc1nc2ccc(S(=O)(=O)C3CCN(CC4CC4)C3)cc2s1` (stereo not drawn) [Example 144, 2-Chloro-N-[[6-[1-(cyclopropylmethyl)pyrrolidin-3-yl]sulfonylbenzothiazol-2-yl]carbamoyl]benzamide] registered an IC50 of 201 nM.

Consider `CN(CCO)CCS(=O)(=O)c1ccc2nc(NC(=O)NC(=O)c3ccccc3Cl)sc2c1` [Example 11, 2-Chloro-N-[[6-[2-(2-hydroxyethyl-methyl-amino)ethylsulfonyl]benzothiazol-2-yl]carbamoyl]benzamide], for which the IC50 in assay [2] is 347 nM. Against the preceding molecule, the IC50 is about 1.7-fold higher.

With `CC(C)NCCCS(=O)(=O)c1ccc2nc(NC(=O)NC(=O)c3cc(-n4cccc4)ccc3Cl)sc2c1` [Example 75, 2-Chloro-N-[[6-[3-(propan-2-ylamino)propylsulfonyl]benzothiazol-2-yl]carbamoyl]-5-pyrrol-1-yl-benzamide], the IC50 in assay [2] came to 7.4 nM.

`COc1cc(Cl)c(C(=O)NC(=O)Nc2nc3ccc(S(C)(=O)=O)cc3s2)cc1OC` [2-chloro-4,5-dimethoxy-N-[(6-methylsulfonyl-1,3-benzothiazol-2-yl)carbamoyl]benzamide]: in assay [2], the “IC50 in the binding assay” value is on record as “did not have IC50s in the range of about 0.001 μM to about 10 μM”.

For the molecule `CCN1CCN(CCS(=O)(=O)c2ccc3nc(NC(=O)NC(=O)c4ccccc4Cl)sc3c2)CC1` [Example 29, 2-Chloro-N-[[6-[2-(4-ethylpiperazin-1-yl)ethylsulfonyl]benzothiazol-2-yl]carbamoyl]benzamide], the IC50 in assay [2] is 60.9 nM.

Take `O=C(NC(=O)c1ccccc1Cl)Nc1nc2ccc(S(=O)(=O)CCN3CCCC3)cc2s1` [Example 6, 2-Chloro-N-[[6-(2-pyrrolidin-1-ylethylsulfonyl)benzothiazol-2-yl]carbamoyl]benzamide]: the IC50 in assay [2] was found to be 44.4 nM.

Molecule `COCCOCCS(=O)(=O)c1ccc2nc(NC(=O)NC(=O)c3ccccc3Cl)sc2c1` [Example 42, 2-Chloro-N-[[6-[2-(2-methoxyethoxy)ethylsulfonyl]benzothiazol-2-yl]carbamoyl]benzamide] displayed an IC50 in assay [2] of 177 nM.

`COCCN(C)CCS(=O)(=O)c1ccc2nc(NC(=O)NC(=O)c3ccccc3Cl)sc2c1` [Example 9, 2-Chloro-N-[[6-[2-(2-methoxyethyl-methyl-amino)ethylsulfonyl]benzothiazol-2-yl]carbamoyl]benzamide] yielded an IC50 in assay [2] of 247 nM.

As to `COCCS(=O)(=O)c1ccc2nc(NC(=O)NC(=O)c3ccccc3Cl)sc2c1` [Example 40, 2-Chloro-N-[[6-(2-methoxyethylsulfonyl)benzothiazol-2-yl]carbamoyl]benzamide], the IC50 in assay [2] turned out to be 1820 nM. This IC50 is about 7.4-fold higher than that of the molecule before.

`O=C(NC(=O)c1ccccc1Cl)Nc1nc2ccc(S(=O)(=O)CCNCC3CCCO3)cc2s1` (stereo not drawn) [Example 22, 2-Chloro-N-[[6-[2-(oxolan-2-ylmethylamino)ethylsulfonyl]benzothiazol-2-yl]carbamoyl]benzamide] showed an IC50 in assay [2] of 184 nM. This IC50 lies about 9.9-fold lower than the previous one.

In assay [2], `O=C(NC(=O)c1ccccc1Cl)Nc1nc2ccc(S(=O)(=O)CCOCCO)cc2s1` [Example 121, 2-Chloro-N-[[6-[2-(2-hydroxyethoxy)ethylsulfonyl]benzothiazol-2-yl]carbamoyl]benzamide] came in with an IC50 of 400 nM.

As for `O=C(NC(=O)c1ccccc1Cl)Nc1nc2ccc(S(=O)(=O)CCCN3CCCC3)cc2s1` [Example 149, 2-Chloro-N-[[6-(3-pyrrolidin-1-ylpropylsulfonyl)benzothiazol-2-yl]carbamoyl]benzamide], the IC50 in assay [2] came out at 52.2 nM.

With `O=C(NC(=O)c1ccccc1Cl)Nc1nc2ccc(S(=O)(=O)CCCN3CCC3)cc2s1` [Example 147, N-[[6-[3-(Azetidin-1-yl)propylsulfonyl]benzothiazol-2-yl]carbamoyl]-2-chloro-benzamide], the IC50 in assay [2] turned out to be 78.8 nM. This IC50 is about 1.5-fold higher than that of the molecule before.

For the molecule `CCN(CCOC)CCS(=O)(=O)c1ccc2nc(NC(=O)NC(=O)c3ccccc3Cl)sc2c1` [Example 15, 2-Chloro-N-[[6-[2-(ethyl-(2-methoxyethyl)amino)ethylsulfonyl]benzothiazol-2-yl]carbamoyl]benzamide], the IC50 in assay [2] stood at 1080 nM.

In the case of `CCN1CCC(S(=O)(=O)c2ccc3nc(NC(=O)NC(=O)c4ccccc4Cl)sc3c2)C1` (stereo not drawn) [Example 163, 2-Chloro-N-[[6-(1-ethylpyrrolidin-3-yl)sulfonylbenzothiazol-2-yl]carbamoyl]benzamide], the IC50 in assay [2] stood at 613 nM.

`O=C(NC(=O)c1ccccc1Cl)Nc1nc2ccc(S(=O)(=O)CCCN3CCC(F)C3)cc2s1` (stereo not drawn) [Example 157, 2-Chloro-N-[[6-[3-(3-fluoropyrrolidin-1-yl)propylsulfonyl]benzothiazol-2-yl]carbamoyl]benzamide] had an IC50 in assay [2] of 78.5 nM.

As for `O=C(NC(=O)c1ccccc1Cl)Nc1nc2ccc(S(=O)(=O)C[C@H]3CCCN3CC3CC3)cc2s1` [Example 156, 2-Chloro-N-[[6-[[(2R)-1-(cyclopropylmethyl)pyrrolidin-2-yl]methylsulfonyl]benzothiazol-2-yl]carbamoyl]benzamide], the IC50 in assay [2] was determined as 64 nM.

Molecule `CN(C)CC1CCN(c2ccc(Cl)c(C(=O)NC(=O)Nc3nc4ccc(S(C)(=O)=O)cc4s3)c2)C1` (stereo not drawn) [Example 270, 2-Chloro-5-[3-(dimethylaminomethyl)pyrrolidin-1-yl]-N-[(6-methylsulfonyl-1,3-benzothiazol-2-yl)carbamoyl]benzamide] showed an IC50 in assay [2] of 762 nM. This IC50 lies about 12-fold higher than the previous one.
